# In EP0260606A2, “Medicament for curing neurotic disturbance or disorder comprising sialocylglycerolipid” (MECT CORPORATION, priority 1986, dated 1988):
# Values joined by “and” are separate entries in the source; they are usually repeats but may differ in a detail not shown here. Equal entries are not always repeated. “Also recorded” adds a separate entry of the source. Where two headings read alike, the source gives them in different places. Marks after values point to notes of the source that are not given here.
# Legend:
# [1] = test system: neuroblastoma cell Neuro2a; assay: Effect on the neuroblastoma cell Neuro2a (formation and growth of axis-cylinder process); assay type: cell-based; conditions: for Length of Axis-cylinder Process / Number of Axis-cylinder Process: average ± S.E.
# Method: The nervous cell used in the test was neuroblastoma cell Neuro2a which is readily available and can be cultured in a relatively simple manner.
# Neuro2a was floated on a culture medium containing fetal cattle serum (hereinafter referred to as FCS), the culture medium consisting of 90% of Dubecco's Modified Eagle's Medium (hereinafter referred to as MEM) and l0% of FCS and added with l00 U/ml of penicillin G and l00 µg/ml of streptomycin sulfate, and cultured in a carbon dioxide cultivator at 37°C in an air containing 5% of carbon dioxide. The containers used were 60 mm polystyrene dishes, and each of the containers was incubated with l to 2 × l0⁴ cells followed by culturing for 48 hours prior to the test. […] After the lapse of 24 hours and 48 hours, the increase in cells formed with axis-cylinder process, the increase in number of axis-cylinder processes and the elongation of the length of the axis-cylinder process were measured.
# The test was conducted while using three dishes for each concentration of each test material.
# [2] = test system: rat having its nigral depaminergic neuron destroyed; assay: Methamphethamine-induced rotational movement after 6-hydroxydopamine lesion and fetal dopaminergic cell transplantation; assay type: in vivo; conditions: for Average of Rotational Movement of Rats (Average + S.D.): group average; for Average of Rotational Movement of Rats (Average + S.D.) / Number of Rotational Movement of Rats: 30 mg/kg; for Number of Rotational Movement of Rats: individual rat, 30 mg/kg every day for two weeks from transplantation; for remedy of motor disturbance: result in words
# Source text: The nigral dopaminergic neuron of the brain of a rat was chemically destroyed by injecting a very small quantity of 6-hydroxydopamine to cause motor disturbance.
# After the lapse of two weeks, a fetal brain dopaminergic cell was transplanted on the Nucleus caudatus of the rat brain to try to remedy the motor disturbance.
# The nigral depaminergic neuron at the left side of the brain of a female Wister family rat aged 4-weeks (Body Weight: l00 g) was destroyed by injecting a very small quantity of 6-hydroxydopamine.
# After two weeks from the destruction by the administration of the drug, portions of the […] containing dopamin cells (i.e. substantia nigra and the Tegmentum at the abdomen side) were extracted from the fetal rat brain of a fetal rat of l4 to l7 days age, cut finely, and treated with trypsin. Then, the extracted tissues were incubated at 37°C for 30 minutes, and the tissues were subjected to pipetting to form a suspension. 5 µl each of the suspensions were transplanted on two sites of the Nucleus caudatus of the destructed side, the total of l0 µl (containing about l0⁵ cells) being transplanted.
# The rotational movements caused by administration of methamphethamine were examined at the time point before 2 weeks of the transplantation (- 2W), at the time point before one week of the transplantation (- lW) and at the time point after two weeks of the transplantation (2W). The number of rotational movements within one minute were counted at l0 minute intervals after six administrations of methamphethamine, and the total number of rotational movements counted for the six times was averaged to find the mean rotational movement. As controls, the numbers of rotational movements of the rats administered, respectively, with a ganglioside mixture and GM₁ ganglioside were counted.
# Acute toxicity test = assay type: in vivo; conditions: mouse, in vivo, mortality at the 7th day, Probit method, read-out: LD₅₀
# Method: (§1) The compound (I) was administered through two administration routes, i.e. orally and intravenous injection, to the groups each consisting of five male ddy mice, while increasing the dosage amounts little by little.
# (§2) From the time immediately after the administration to the lapse of 7 days, the general syndrome and death of the mice were inspected. The medial lethal dose (LD₅₀) was calculated, through the Probit method, from the mortality rate at the 7th day from the beginning of administration. LD₅₀ = 58l mg/kg (through intraveous injection) 5000 mg/kg (through oral administration)
# male ddy mice = assay: Acute toxicity test; assay type: in vivo; conditions: result in words
# Method: as §1, §2
# [3] = in consideration of the molecular weights, 48 hour cultivation
# [4] = - 1W (before transplantation and dosing)
# [5] = - 2W (before transplantation and dosing)
structure (smiles),measurement,setting,value
CCCCCCCCCCCCCCOCC(COC1(C(=O)O)CC(O)C(NC(C)=O)C(C(O)C(O)CO)O1)OCCCCCCCCCCCCCC (centres unmarked) [Compound (I)],Number of Cells Formed with Axis-cylinder Process,"[1]; 24 hours, 0.01 µg/ml",184
same,Ratio of Cells Formed with Axis-cylinder Process,"[1]; 24 hours, 0.01 µg/ml",44.7%
same,Total Number of Cells,"[1]; 24 hours, 0.01 µg/ml",412
same,Length of Axis-cylinder Process,"[1]; 24 hours, 0.01 µg/ml",107.5 ± 4.56 µm/cell
same,Number of Axis-cylinder Process,"[1]; 24 hours, 0.01 µg/ml",1.2 ± 0.03 per cell
same,Number of Cells Formed with Axis-cylinder Process,"[1]; 24 hours, 0.1 µg/ml",188
same,Ratio of Cells Formed with Axis-cylinder Process,"[1]; 24 hours, 0.1 µg/ml",50.9%
same,Total Number of Cells,"[1]; 24 hours, 0.1 µg/ml",369
same,Length of Axis-cylinder Process,"[1]; 24 hours, 0.1 µg/ml",111.4 ± 4.60 µm/cell
same,Number of Axis-cylinder Process,"[1]; 24 hours, 0.1 µg/ml",1.2 ± 0.03 per cell
same,Number of Cells Formed with Axis-cylinder Process,"[1]; 24 hours, 1 µg/ml",214
same,Ratio of Cells Formed with Axis-cylinder Process,"[1]; 24 hours, 1 µg/ml",63.5%
same,Total Number of Cells,"[1]; 24 hours, 1 µg/ml",337
same,Length of Axis-cylinder Process,"[1]; 24 hours, 1 µg/ml",158.7 ± 6.94 µm/cell
same,Number of Axis-cylinder Process,"[1]; 24 hours, 1 µg/ml",1.0 ± 0.02 per cell
same,Number of Cells Formed with Axis-cylinder Process,"[1]; 24 hours, 10 µg/ml",U.C.
same,Total Number of Cells,"[1]; 24 hours, 10 µg/ml",U.C.
same,Length of Axis-cylinder Process,"[1]; 24 hours, 10 µg/ml",U.C.
same,Number of Axis-cylinder Process,"[1]; 24 hours, 10 µg/ml",U.C.
same,Number of Cells Formed with Axis-cylinder Process,"[1]; 48 hours, 0.01 µg/ml",249
same,Ratio of Cells Formed with Axis-cylinder Process,"[1]; 48 hours, 0.01 µg/ml",50.7%
same,Total Number of Cells,"[1]; 48 hours, 0.01 µg/ml",491
same,Length of Axis-cylinder Process,"[1]; 48 hours, 0.01 µg/ml",117.1 ± 4.94 µm/cell
same,Number of Axis-cylinder Process,"[1]; 48 hours, 0.01 µg/ml",1.2 ± 0.03 per cell
same,Number of Cells Formed with Axis-cylinder Process,"[1]; 48 hours, 0.1 µg/ml",258
same,Ratio of Cells Formed with Axis-cylinder Process,"[1]; 48 hours, 0.1 µg/ml",55.6%
same,Total Number of Cells,"[1]; 48 hours, 0.1 µg/ml",464
same,Length of Axis-cylinder Process,"[1]; 48 hours, 0.1 µg/ml",128.8 ± 5.71 µm/cell
same,Number of Axis-cylinder Process,"[1]; 48 hours, 0.1 µg/ml",1.2 ± 0.03 per cell
same,Number of Cells Formed with Axis-cylinder Process,"[1]; 48 hours, 1 µg/ml",248
same,Ratio of Cells Formed with Axis-cylinder Process,"[1]; 48 hours, 1 µg/ml",61.4%
same,Total Number of Cells,"[1]; 48 hours, 1 µg/ml",404
same,Length of Axis-cylinder Process,"[1]; 48 hours, 1 µg/ml",154.7 ± 5.99 µm/cell
same,Number of Axis-cylinder Process,"[1]; 48 hours, 1 µg/ml",1.1 ± 0.03 per cell
same,Number of Cells Formed with Axis-cylinder Process,"[1]; 48 hours, 10 µg/ml",U.C.
same,Total Number of Cells,"[1]; 48 hours, 10 µg/ml",U.C.
same,Length of Axis-cylinder Process,"[1]; 48 hours, 10 µg/ml",U.C.
same,Number of Axis-cylinder Process,"[1]; 48 hours, 10 µg/ml",1 U.C.
same,minimal effective concentration,"[1]; Mus musculus, N2a, 48 hour cultivation",0.01 µg/mL
same,activity relative to GM₁,[1]; [3],500 times
same,activity relative to GQ1b,[1]; [3],300 times
same,effect on growth of the axis-cylinder process,"[1]; result in words, compared with the control group",significant effect of promoting the growth of the axis-cylinder process; also recorded: extremely high activity for promoting growth or elongation of axis-cylinder process
same,Average of Rotational Movement of Rats (Average + S.D.),[2]; 2W after transplantation,2.8+4.0*
same,Average of Rotational Movement of Rats (Average + S.D.),[2]; [4],12.3+3.8
same,Average of Rotational Movement of Rats (Average + S.D.),[2]; [5],8.2+3.2
same,Number of Rotational Movement of Rats,[2]; 2W after transplantation,5.3 and 3.2 and 5.8
same,Number of Rotational Movement of Rats,[2]; [4],17.4 and 12.2 and 8.4 and 11.0
same,Number of Rotational Movement of Rats,[2]; [5],12.2 and 5.8 and 5.4 and 9.5
same,remedy of motor disturbance,[2],effect of promoting the remedy of motor disturbance similar to the ganglioside mixtures
same,remedy of motor disturbance,[2]; listed as compound (I),had a function of remedying the nerves similar to gangliosides
same,LD50 at 168 h,Acute toxicity test; intravenous injection,581 mg/kg
same,LD50 at 168 h,Acute toxicity test; oral administration,5000 mg/kg
same,toxicity,male ddy mice,extremely low toxicity
